This is an account of results in patent US8846699B2, “Quinazoline derivatives as a multiplex inhibitor and method for the preparation thereof” (Hanmi Pharm. Co., Ltd., priority 2005, dated 2014).

In test [1] the test system is skin cancer cell line, A431. The test is described as follows: Inhibitory effect on growth of cancer cell line A431, SRB. It counts as cell-based. The conditions noted are these: overexpressed EGFR1 (HER-1). The text has this:
(§1) A skin cancer cell line, A431 (ATCC: CRL-1555), a breast cancer cell line, SK-Br3 (ATCC: HTB-30), and a colon and rectal cancer cell line, SW-620 (ATCC: CCL-227) were used to test the degrees of cancer cell growth inhibition using a culture medium, DEME (Dulbecco's Modified Eagle's Medium, JBI) including 4.5 g/l of glucose and 1.5 g/l of sodium bicarbonate and supplemented with 10% FBS (fetal bovine serum, JBI).
(§2) The cancer cell lines stored in a liquid nitrogen tank were each quickly thawed at 37° C., and centrifuged to remove the medium. The resulting cell pellet was mixed with a culture medium, incubated in a culture flask at 37° C. under 5% CO2 for 2 to 3 days, and the medium was removed. The remaining cells were washed with DPBS (Dulbecco's Phosphate Buffered Saline, JBI) and separated from the flask by using Trypsin-EDTA solution, and the separated cells were diluted with a culture medium to a concentration of 1.0×10^6 cells/ml in case of A431 and SW-620, and 2.0×10^6 cells/ml in case of SK-Br3. 100 μl of the diluted cell solution was added to each well of a 96-well plate, which was incubated at 37° C. under 5% CO2 for 1 day.
(§3) In case that the test compound was not soluble in DMSO, a small amount of 1% HCl was added thereto and treated in a 40° C. water bath for 30 mins until complete dissolution was attained. The test compound solution was diluted with a culture medium to a final concentration of 10 μM, and then diluted 10 times serially to 10^−4. The final concentration of DMSO was less than 1%, and the control compounds of Test Example 1 were used at a concentration of 0.0001 to 10 μM.
(§4) The medium was removed from each well of the 96-well microplate, 100 μl of a diluted test compound solution was added to each well holding cultured cells, and the microplate was incubated at 37° C. under 5% CO2 for 72 hours. After removing the medium from the plate, 50 μl of 10% trichloroacetic acid was added to each well, and the plate was kept at 37° C. for 1 hour to fix the cells to the bottom of the plate. 10% trichloroacetic acid was removed from each well, the plate was dried, 100 μl of an SRB (Sulforhodamine-B, Sigma) dye solution was added thereto, and reacted for 10 mins. The SRB dye solution was prepared by dissolving SRB in 1% acetic acid to a concentration of 0.4%. After removing the dye solution, the plate was washed with water, and dried. When the dye solution was not removed by water, 1% acetic acid was used.
(§5) 150 μl of 10 mM trisma base (Sigma) was added to each well, and the absorbance at 570 nm was determined with a microplate reader (Molecular device).

In test [2] the test system is breast cancer cell line, SK-Br3. The test is described as follows: Inhibitory effect on growth of cancer cell line SK-Br3, SRB. It counts as cell-based. The conditions noted are these: overexpressed EGFR2 (HER-2).
Description: as §1, §2, §3, §4, §5

In test [3] the target is EGFR1 (HER-1) (Homo sapiens (Human), UniProt P00533). The test can be described thus: EGFR1 (HER-1) enzyme assay, fluorescence polarization. The conditions noted are these: 100 μM ATP, poly(Glu, Tyr) substrate. The class given is biochemical. Background: Fluorescence polarisation rises when a labelled molecule tumbles more slowly, as on binding a larger partner.
Chain of EGFR1 (HER-1) (P00533 25-1210): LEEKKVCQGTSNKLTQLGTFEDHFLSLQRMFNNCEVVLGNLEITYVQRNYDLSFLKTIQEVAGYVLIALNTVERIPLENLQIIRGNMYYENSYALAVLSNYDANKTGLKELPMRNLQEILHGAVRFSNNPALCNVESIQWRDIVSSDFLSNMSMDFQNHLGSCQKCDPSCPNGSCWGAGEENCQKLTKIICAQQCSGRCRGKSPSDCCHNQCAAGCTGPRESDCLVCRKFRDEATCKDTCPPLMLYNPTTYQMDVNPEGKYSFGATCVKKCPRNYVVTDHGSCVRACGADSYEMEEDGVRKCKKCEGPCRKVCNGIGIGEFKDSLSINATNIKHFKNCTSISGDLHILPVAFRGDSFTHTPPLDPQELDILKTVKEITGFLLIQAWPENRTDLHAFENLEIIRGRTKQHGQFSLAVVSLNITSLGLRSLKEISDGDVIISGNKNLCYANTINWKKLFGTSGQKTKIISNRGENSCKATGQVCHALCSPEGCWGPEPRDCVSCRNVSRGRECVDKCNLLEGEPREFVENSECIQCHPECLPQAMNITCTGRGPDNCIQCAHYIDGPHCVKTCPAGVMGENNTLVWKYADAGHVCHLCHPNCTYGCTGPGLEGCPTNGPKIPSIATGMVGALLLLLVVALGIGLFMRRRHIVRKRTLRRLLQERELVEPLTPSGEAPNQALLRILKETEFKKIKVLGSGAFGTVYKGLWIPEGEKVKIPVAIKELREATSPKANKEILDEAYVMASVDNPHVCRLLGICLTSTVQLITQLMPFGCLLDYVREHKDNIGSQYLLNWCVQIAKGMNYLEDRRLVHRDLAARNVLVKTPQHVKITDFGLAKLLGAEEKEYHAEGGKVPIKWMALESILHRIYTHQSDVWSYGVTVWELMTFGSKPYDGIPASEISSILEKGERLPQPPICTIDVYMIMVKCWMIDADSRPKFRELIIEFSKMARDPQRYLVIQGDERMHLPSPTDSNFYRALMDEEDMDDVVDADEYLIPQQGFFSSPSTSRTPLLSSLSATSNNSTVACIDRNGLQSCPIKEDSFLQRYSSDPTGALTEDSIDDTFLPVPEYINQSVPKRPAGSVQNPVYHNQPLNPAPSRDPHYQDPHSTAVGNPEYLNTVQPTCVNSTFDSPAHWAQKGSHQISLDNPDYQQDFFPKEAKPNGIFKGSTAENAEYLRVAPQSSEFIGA
In test [4] the test system is colon and rectal cancer cell line, SW-620. The test can be described thus: Inhibitory effect on growth of cancer cell line SW-620, SRB. The class given is cell-based. The conditions noted are these: not having overexpressed EGFR and EGFR2.
Description: as §1, §2, §3, §4, §5

For test [5], the system named is Human Umbilical Vein Endothelial Cell (HUVEC). The test is described as follows: Inhibitory effect on growth of human umbilical vein endothelial cell (HUVEC), MTS. The conditions noted are these: 10 ng/ml VEGF, absorbance 490 nm. It counts as cell-based. As for the experimental part: HUVECs (Young Science, Inc) were suspended in a culture medium, EBM-2 (Endothelial Basic Media, Cambrex) supplemented with 2% bovine serum (Cambrex) and auxiliary additives for HUVEC culture (e.g., EGF, VEGF, FGF, etc., Cambrex), inoculated into a culture flask coated with 1% gelatin, and incubated in an incubator at 37° C. under 5% CO2 and 100% humidity.
100 μl of 5% bovine serum medium containing 10 ng/ml of vascular endothelial growth factor (VEGF) and auxiliary additives, while excluding other growth factors was added to each well of a 96-well plate. […] DMSO (Dimethylsulfoxide) was used to dissolve the test compounds, and the final concentration of DMSO was less than 1%.
100 μl of the diluted cell solution was added to each well of the 96-well plate, which was incubated in an incubator for 96 hours.
Then, 20 μl of MTS ([…], Promega) solution was added to each well of the plate, and the plate was incubated in an incubator for 4 hours to induce discoloration. After 4 hours, the pellets were dissolved by way of a thorough shaking, and the absorbance at 490 nm was determined.

For the compound `C=CC(=O)Nc1cc2c(Nc3ccc(Br)cc3C(F)(F)F)ncnc2cc1OCCNC(C)=O` [Example 114, N-[7-(2-acetylamino-ethoxy)-4-(4-bromo-2-trifluoromethyl-phenylamino)-quinazolin-6-yl]-acrylamide], the IC50 (usually the concentration that inhibits the measured activity by half) was 468 nM in test [1] (Homo sapiens, A-431, 72 h); 897 nM in test [2] (Homo sapiens, SK-BR-3, 72 h); 456 nM in test [3].
With `C=CC(=O)Nc1cc2c(Nc3cc(OC)c(Cl)cc3Cl)ncnc2cc1OCCNC(C)=O` [Example 132, N-[7-(2-acetylamino-ethoxy)-4-(2,4-dichloro-5-methoxy-phenylamino)-quinazolin-6-yl]-acrylamide], the IC50 in test [1] (Homo sapiens, A-431, 72 h) was determined as 47 nM; in test [2] (Homo sapiens, SK-BR-3, 72 h), 36 nM; in test [4] (Homo sapiens, 72 h), 2.7 µM; in test [3], 42 nM.
The corresponding values for `C=CC(=O)Nc1cc2c(Nc3cc(OC)c(Cl)cc3OC)ncnc2cc1OCCNC(=O)CN(C)C` [Example 166, N-{4-(4-chloro-2,5-dimethoxy-phenylamino)-7-[2-(2-dimethylamino-acetylamino)-ethoxy]-quinazolin-6-yl}-acrylamide] are 30 nM, 27 nM, 5.65 µM and 14 nM.
For `C=CC(=O)Nc1cc2c(Nc3ccc(Br)c(Cl)c3)ncnc2cc1OCCNC(=O)CN(C)C` [Example 152], the IC50 in test [1] (72 hours) turned out to be 99 nM; in test [2] (72 hours), 647 nM; in test [4] (72 hours) it was 10 µM; in test [5] (96 hours) it was 10 µM; in test [3] it was 75 nM.
In the case of `C=C(C)C(=O)Nc1cc2c(Nc3ccc(Br)cc3F)ncnc2cc1OCCNC(C)=O` [Example 76, N-[7-(2-acetylamino-ethoxy)-4-(4-bromo-2-fluoro-phenylamino)-quinazolin-6-yl]-2-methyl-acrylamide], the IC50 was found to be 2880 nM in test [1] (Homo sapiens, A-431, 72 h); 6340 nM in test [2] (Homo sapiens, SK-BR-3, 72 h); 1020 nM in test [3].
As to `C=CC(=O)Nc1cc2c(Nc3ccc(F)c(Cl)c3)ncnc2cc1OCCNC(C)=O` [Example 111, N-[7-(2-acetylamino-ethoxy)-4-(3-chloro-4-fluoro-phenylamino)-quinazolin-6-yl]-acrylamide], the IC50 in test [1] (Homo sapiens, A-431, 72 h) is 9 nM; in test [2] (Homo sapiens, SK-BR-3, 72 h), 26 nM; in test [4] (Homo sapiens, 72 h), 8.53 µM; in test [3], 12 nM.
In the case of `C=CC(=O)Nc1cc2c(Nc3ccc(Br)cc3F)ncnc2cc1OC1CCN(C(C)=O)C1` (stereo not drawn) [Example 88, N-[7-(1-acetyl-pyrrolidin-3-yloxy)-4-(4-bromo-2-fluoro-phenylamino)-quinazolin-6-yl]-acrylamide], the IC50 in test [1] (Homo sapiens, A-431, 72 h) amounted to 99 nM; in test [2] (Homo sapiens, SK-BR-3, 72 h), 297 nM; in test [4] (Homo sapiens, 72 h), 0.723 µM; in test [5] (Homo sapiens, 96 h), 10 µM; in test [3], 94 nM.
Take `C=CC(=O)Nc1cc2c(Nc3ccc(Br)cc3F)ncnc2cc1OCC(C)(C)NC(=O)CN(C)C` [Example 154, N-{4-(4-bromo-2-fluoro-phenylamino)-7-[2-(2-dimethylamino-acetylamino)-2-methyl-propoxy]-quinazolin-6-yl}-acrylamide]: the IC50 in test [1] (Homo sapiens, A-431, 72 h) stood at 248 nM; in test [2] (Homo sapiens, SK-BR-3, 72 h), 240 nM; in test [4] (Homo sapiens, 72 h) it was 9.13 µM; in test [3], 222 nM.
As for `C=CC(=O)Nc1cc2c(Nc3ccc(Br)cc3F)ncnc2cc1OCCNC(=O)C1CCCN1C` (stereo not drawn) [Example 98, 1-methyl-pyrrolidine-2-carboxylic acid {2-[6-acryloylamino-4-(4-bromo-2-fluoro-phenylamino)-quinazolin-7-yloxy]-ethyl}-amide], the IC50 in test [1] (72 hours) stood at 78 nM; in test [2] (Homo sapiens, SK-BR-3, 72 h), 179 nM; in test [4] (Homo sapiens, 72 h), 9.57 µM; in test [3] it was 69 nM.
On to `C=CC(=O)Nc1cc2c(Nc3ccc(Br)cc3F)ncnc2cc1OC1CCCN(C(C)=O)C1` (stereo not drawn) [Example 89, N-[7-(1-acetyl-piperidin-3-yloxy)-4-(4-bromo-2-fluoro-phenylamino)-quinazolin-6-yl]-acrylamide], for which the IC50 in test [1] (Homo sapiens, A-431, 72 h) stood at 368 nM; in test [2] (Homo sapiens, SK-BR-3, 72 h) it was 965 nM; in test [4] (Homo sapiens, 72 h), 10 µM; in test [5] (Homo sapiens, 96 h), 10 µM; in test [3] it was 128 nM.
On to `C=CC(=O)Nc1cc2c(Nc3ccc(Br)cc3F)ncnc2cc1OCC(NC(=O)CN(C)C)C(C)C` (stereo not drawn) [Example 156, N-{4-(4-bromo-2-fluoro-phenylamino)-7-[2-(2-dimethylamino-acetylamino)-3-methyl-buthoxy]-quinazolin-6-yl}-acrylamide], for which the IC50 in test [1] (72 hours) is 196 nM; in test [2] (72 hours) it was 462 nM; in test [4] (72 hours), 3.27 µM; in test [5] (96 hours), 10 µM; in test [3], 149 nM.
As for `COc1cc2c(Nc3ccc(Br)cc3F)ncnc2cc1OCC1CCN(C)CC1` [Control 2, ZD6474, reference compound], the IC50 in test [1] (Homo sapiens, A-431, 72 h) stood at 28 nM; in test [2] (Homo sapiens, SK-BR-3, 72 h), 2600 nM; in test [4] (Homo sapiens, 72 h) it was 4.5 µM; in test [5] (Homo sapiens, 96 h), 0.07 µM.
In the same order, the values of `Clc1ccc(Nc2nnc(Cc3ccncc3)c3ccccc23)cc1` [Control 1, PTK787, reference compound] are 10000 nM, 10000 nM, 10 µM and 0.04 µM.
On to `C=CC(=O)Nc1cc2c(Nc3ccc(Br)cc3F)ncnc2cc1OCCNC(=O)C1CCCN1C` (stereo not drawn) [Example 100, 1-methyl-pyrrolidine-2-carboxylic acid {2-[6-acryloylamino-4-(4-bromo-2-fluoro-phenylamino)-quinazolin-7-yloxy]-ethyl}-amide], for which the IC50 in test [1] (72 hours) came out at 25 nM; in test [2] (72 hours) it was 101 nM; in test [4] (72 hours), 10 µM; in test [3], 24 nM.
As for `C=CC(=O)Nc1cc2c(Nc3ccc(Br)c(Cl)c3F)ncnc2cc1OC[C@H](C)NC(=O)CN(C)C` [Example 158, (S)—N-4-(4-bromo-3-chloro-2-fluoro-phenylamino)-7-[2-(2-dimethylamino-acetylamino)-propoxy]-quinazolin-6-yl-acrylamide], the IC50 was found to be 259 nM in test [1] (72 hours); 381 nM in test [2] (72 hours); 5.15 µM in test [4] (72 hours); 10 µM in test [5] (96 hours); 23.1 nM in test [3].
Turning to `C=CC(=O)N(C)c1cc2c(Nc3ccc(Br)cc3F)ncnc2cc1OCCNC(C)=O` [Example 78, N-[7-(2-acetylamino-ethoxy)-4-(4-bromo-2-fluoro-phenylamino)-quinazolin-6-yl]-N-methyl-acrylamide], the IC50 was 396 nM in test [1] (Homo sapiens, A-431, 72 h); 1210 nM in test [2] (Homo sapiens, SK-BR-3, 72 h); 389 nM in test [3].
